{"source": "patent US20220095609A1", "about": "“FREEZING OF BIOLOGICAL MATERIAL” (SCI-GROUP AS, priority 2018, published 2022)", "key": {"[1]": {"tested_on": "T-47D breast cancer cells", "assay": "Colony formation (plating efficiency) after freezing and thawing, T-47D", "format": "cell-based, human", "settings": "Standard freezing with 5% DMSO (30 min -20° C., 45 min ~-80° C., liquid N2)", "source_text": "(§1) The objective was to test the importance of the duration of ice-formation time (=time to remove latent heat during ice formation) of seed stocks of two established human cells lines: T-47D breast cancer cells and T98G glioblastoma cells, for viability after thawing. In addition to variation in ice-forming time two variables have been tested: • Cells frozen without DMSO or with 5% DMSO • Cells frozen within a mixed strong magnetic (0.2-0.3 T)-pulsing electric (20V (220V/m)-20kHZ) field (hereinafter termed “Strong MAG/PEF”), or just outside the Field Box in a weak magnetic (0,005-0,008T)-pulsing electric (7-16V (75-185V/m)-20 kHz) (hereinafter “Weak MAG/PEF) field.\n(§2) The cells of both types were grown as monolayer cultures in RPMI 1640 medium (Gibco, Rockwill, Md., USA) supplemented with 10% fetal calf serum (Gibco), 2 mM L-glutamine, 200 units/I insulin and 1% penicillin/streptomycin (Gibco). […]\n(§3) For each cell type separate preparation of samples for freezing was performed by standard trypsin treatment of several flasks and pooling of the cells after removal of the trypsin solution and re-suspending of the cells in RPMI-medium. After pooling the cell numbers per ml were accurately counted on a flow cytometer and thereafter dilutions of cell suspensions suitable to obtain the concentration of cells desired for transfer to the cryo-tubes were made for each cell type. […]"}, "cells": {"tested_on": "cells", "assay": "MTS bioassay, viability after freezing and thawing", "format": "cell-based", "source_text": "[…] the presence of a combined magnetic (0.2-0.3 T)-pulsing electric fields (20V (220V/m)-20kHZ), in the presence or absence of DMSO (0-5%) measured as the fraction of cells retaining their full proliferative capacity after freezing, monitored with a rapid bioassay-MTS-as an alternative to conventional plating efficiency testing.\nThe experiment included the standard method used by most researchers, i.e. freezing with 5% DMSO in a “Nalgene Mr Frosty” apparatus (Merck KgaA, Germany), operated with a 15 minutes phase-transition time corresponding to the state of the art freezing rate of 1 degree per minute.\n(§4) The cells were grown to 70% confluence in 162 cm^2 flasks as monolayer cultures in Ham's F12 medium supplemented with 10% fetal calf serum (FBS). The cells were kept in continuous exponential growth by re-culturing twice per week. Harvest for re-culturing or for freezing was done by removing the growth medium, rinsing two times in 1.5 ml trypsin EDTA solution (0.05% and 0.02% respectively), and incubating cultures for 5 min at 37° C. in the residual trypsin solution. The trypsinization was stopped by adding Ham's F12 medium with FBS.\n(§5) Cells were resuspended and counted using Countess Automated Cell counter with Trypan Blue Stain (0.4%) to estimate the cell viability.\n(§6) The cell suspension was transferred to 15 ml tube and centrifuged (200xg, 5 min, 4° C.). The supernatant was removed and the cell pellets were resuspended in cold FBS to give a final concentration of 2×10^6 cells/ml. 0.5 ml of the cell suspension was transferred to 2 ml cryo-tube. Equal volume (0.5 ml) freezing medium with or without DMSO-medium was added to each cryotube to give a final 5% concentration of DMSO and 1×10^6 cells per ml in each tube.\nAfter 15 days in liquid nitrogen samples were thawed and cells seeded for MTS assay as follows: • cells were transferred to 15 ml tubes containing 4 ml culture media (total volume of 4+1=5 ml) and centrifuged at 200×g, 10 min, 4° C. • cells were resuspended in 1 ml media with 1% FBS and further diluted 10 times to give a concentration of 1×10^5/ml based on the initial counting before freezing. • After dilution, 0.2 ml of cells from each freezing condition was seeded in 96 well plates and the plates were incubated at 37° C. until the next day. • After the overnight incubation, media was removed and 0.1 ml of a fresh 1% FBS media was added. 20 μl of MTS reagent was added. • Finally, OD490 values were read after 1-4 hours incubation. The number of viable cells/well were calculated based on a standard curve generated using ongoing cell cultures. The calculation was performed in GraphPad Prism 8, using four parameter nonlinear logistic regression and the curve fitting function."}, "[2]": {"tested_on": "adherent CHO cells (chinese hamster ovary cells K1)", "assay": "Colony formation (plating efficiency) after freezing and thawing, adherent CHO cells", "format": "cell-based", "source_text": "The objective was to test the importance of the duration of ice-formation (=time to remove latent heat during ice formation) of seed stocks of adherent CHO cells (chinese hamster ovary cells K1 for viability after thawing. In addition to variation in ice-forming time two variables have been tested: • Cells frozen without DMSO or with 5% DMSO • Cells frozen within a mixed strong magnetic (0,2-0,3T)-pulsing electric (20V (220V/m)-20kHZ) field (hereinafter termed “Strong MAG/PEF”), or just outside the Field Box in a weak magnetic (0,005-0,008T)-pulsing electric (7-16V (75-185V/m)-20 kHz) (hereinafter “Weak MAG/PEF) field.\nas §4, with “grown” for “grown to 70% confluence”, “serum.” for “serum (FBS).”\nas §5\nas §6, with “(200 g,” for “(200xg,”\nAfter 10 days in liquid nitrogen samples were thawed and cells seeded for colony formation. There were 3 parallel flasks for each sample tested. The control was the traditional procedure used in the laboratory with 5% DMSO and with 30 min in −20° C., 45 min in ˜−80° C. and final storage in liquid N2.\nThe flasks were incubated for colony formation in a Steri-cult 200 incubator operated at 37° C. and with 5% CO2 in the atmosphere. Incubation continued for six days. For counting of macroscopic colonies cells were fixed in ethanol and stained with methylene blue."}, "T98G glioblastoma cells": {"tested_on": "T98G glioblastoma cells", "assay": "Colony formation (plating efficiency) after freezing and thawing, T98G", "format": "cell-based, human", "settings": "Standard freezing with 5% DMSO (30 min -20° C., 45 min ~-80° C., liquid N2); T-98G", "source_text": "as §1, §2, §3"}}, "data": [{"smiles": "C[S+](C)[O-]", "note": "[DMSO, Dimethyl sulfoxide]", "values": [{"measurement": "Plating efficiency—PE (%)", "setting": "[1]", "value": "80-90%"}, {"measurement": "difference in viability between 2 min and 3 min (optimal point) phase-transition time", "setting": "cells; 1% DMSO", "value": 13, "unit": "%"}, {"measurement": "difference in viability between 3 min and 4 min phase-transition time", "setting": "cells; 1% DMSO", "value": 39, "unit": "%"}, {"measurement": "percentage viability after freezing and thawing", "setting": "cells; 1% DMSO, phase-transition time 1.4 min, magnetic 0.2-0.3 T, pulsing electric field", "value": 8, "unit": "%"}, {"measurement": "percentage viability after freezing and thawing", "setting": "cells; 1% DMSO, phase-transition time 1.8 min, magnetic 0.2-0.3 T, pulsing electric field", "value": 26, "unit": "%"}, {"measurement": "percentage viability after freezing and thawing", "setting": "cells; 1% DMSO, phase-transition time 2 min, magnetic 0.2-0.3 T, pulsing electric field", "value": 36, "unit": "%"}, {"measurement": "percentage viability after freezing and thawing", "setting": "cells; 1% DMSO, phase-transition time 2.2 min, magnetic 0.2-0.3 T, pulsing electric field", "value": 35, "unit": "%"}, {"measurement": "percentage viability after freezing and thawing", "setting": "cells; 1% DMSO, phase-transition time 2.4 min, magnetic 0.2-0.3 T, pulsing electric field", "value": 41, "unit": "%"}, {"measurement": "percentage viability after freezing and thawing", "setting": "cells; 1% DMSO, phase-transition time 2.6 min, magnetic 0.2-0.3 T, pulsing electric field", "value": 45, "unit": "%"}, {"measurement": "percentage viability after freezing and thawing", "setting": "cells; 1% DMSO, phase-transition time 2.7 min, magnetic 0.2-0.3 T, pulsing electric field", "value": 47, "unit": "%"}, {"measurement": "percentage viability after freezing and thawing", "setting": "cells; 1% DMSO, phase-transition time 3 min, magnetic 0.2-0.3 T, pulsing electric field", "value": 47, "unit": "%"}, {"measurement": "percentage viability after freezing and thawing", "setting": "cells; 1% DMSO, phase-transition time 4 min, magnetic 0.2-0.3 T, pulsing electric field", "value": 4, "unit": "%"}, {"measurement": "percentage viability after freezing and thawing", "setting": "cells; 1% DMSO, phase-transition time 5.5 min, magnetic 0.2-0.3 T, pulsing electric field", "value": 4, "unit": "%"}, {"measurement": "percentage viability after freezing and thawing", "setting": "cells; 2% DMSO, phase-transition time 1.4 min, magnetic 0.2-0.3 T, pulsing electric field", "value": 36, "unit": "%"}, {"measurement": "percentage viability after freezing and thawing", "setting": "cells; 2% DMSO, phase-transition time 1.8 min, magnetic 0.2-0.3 T, pulsing electric field", "value": 57, "unit": "%"}, {"measurement": "percentage viability after freezing and thawing", "setting": "cells; 2% DMSO, phase-transition time 2 min, magnetic 0.2-0.3 T, pulsing electric field", "value": 53, "unit": "%"}, {"measurement": "percentage viability after freezing and thawing", "setting": "cells; 2% DMSO, phase-transition time 2.2 min, magnetic 0.2-0.3 T, pulsing electric field", "value": 61, "unit": "%"}, {"measurement": "percentage viability after freezing and thawing", "setting": "cells; 2% DMSO, phase-transition time 2.4 min, magnetic 0.2-0.3 T, pulsing electric field", "value": 52, "unit": "%"}, {"measurement": "percentage viability after freezing and thawing", "setting": "cells; 2% DMSO, phase-transition time 2.6 min, magnetic 0.2-0.3 T, pulsing electric field", "value": 63, "unit": "%"}, {"measurement": "percentage viability after freezing and thawing", "setting": "cells; 2% DMSO, phase-transition time 2.7 min, magnetic 0.2-0.3 T, pulsing electric field", "value": 65, "unit": "%"}, {"measurement": "percentage viability after freezing and thawing", "setting": "cells; 2% DMSO, phase-transition time 3 min, magnetic 0.2-0.3 T, pulsing electric field", "value": 66, "unit": "%"}, {"measurement": "percentage viability after freezing and thawing", "setting": "cells; 2% DMSO, phase-transition time 4 min, magnetic 0.2-0.3 T, pulsing electric field", "value": 27, "unit": "%"}, {"measurement": "percentage viability after freezing and thawing", "setting": "cells; 2% DMSO, phase-transition time 5.5 min, magnetic 0.2-0.3 T, pulsing electric field", "value": 17, "unit": "%"}, {"measurement": "percentage viability after freezing and thawing", "setting": "cells; 5% DMSO, phase-transition time 1.8 min, magnetic 0.2-0.3 T, pulsing electric field", "value": 76, "unit": "%"}, {"measurement": "percentage viability after freezing and thawing", "setting": "cells; 5% DMSO, phase-transition time 2.2 min, magnetic 0.2-0.3 T, pulsing electric field", "value": 74, "unit": "%"}, {"measurement": "percentage viability after freezing and thawing", "setting": "cells; 5% DMSO, phase-transition time 2.4 min, magnetic 0.2-0.3 T, pulsing electric field", "value": 90, "unit": "%"}, {"measurement": "percentage viability after freezing and thawing", "setting": "cells; 5% DMSO, phase-transition time 2.6 min, magnetic 0.2-0.3 T, pulsing electric field", "value": 98, "unit": "%"}, {"measurement": "percentage viability after freezing and thawing", "setting": "cells; 5% DMSO, phase-transition time 2.7 min, magnetic 0.2-0.3 T, pulsing electric field", "value": 97, "unit": "%"}, {"measurement": "percentage viability after freezing and thawing", "setting": "cells; 5% DMSO, phase-transition time 3 min, magnetic 0.2-0.3 T, pulsing electric field", "value": 97, "unit": "%"}, {"measurement": "percentage viability after freezing and thawing", "setting": "cells; 5% DMSO, phase-transition time 4 min, magnetic 0.2-0.3 T, pulsing electric field", "value": 99, "unit": "%"}, {"measurement": "percentage viability after freezing and thawing", "setting": "cells; 5% DMSO, phase-transition time 5.5 min, magnetic 0.2-0.3 T, pulsing electric field", "value": 99, "unit": "%"}, {"measurement": "percentage viability after freezing and thawing", "setting": "cells; 5% DMSO, phase-transition time 15 min, standard method, Nalgene Mr Frosty, 1 degree per minute", "value": 68, "unit": "%"}, {"measurement": "PE: plating efficiency (%)", "setting": "[2]; 5% DMSO, ice formation time 1 min 55 sec, Strong MAG/PEF", "value": 88, "unit": "%"}, {"measurement": "PE: plating efficiency (%)", "setting": "[2]; 5% DMSO, ice formation time 1 min 55 sec, Weak MAG/PEF", "value": 98, "unit": "%"}, {"measurement": "PE: plating efficiency (%)", "setting": "[2]; 5% DMSO, ice formation time 4 min 8 sec, Weak MAG/PEF", "value": 95, "unit": "%"}, {"measurement": "PE: plating efficiency (%)", "setting": "[2]; 5% DMSO, ice formation time 5 min 7 sec, Strong MAG/PEF", "value": 72, "unit": "%"}, {"measurement": "PE: plating efficiency (%)", "setting": "[2]; 5% DMSO, ice formation time 5 min 7 sec, Weak MAG/PEF", "value": 64, "unit": "%"}, {"measurement": "PE: plating efficiency (%)", "setting": "[2]; 4 min", "value": "107 (artefacted) %"}, {"measurement": "Plating efficiency—PE (%)", "setting": "T98G glioblastoma cells", "value": 57, "unit": "%"}]}]}
